Experimental findings from US10392367B2, “IRE1 small molecule inhibitors” (QUENTIS THERAPEUTICS, INC., priority 2017, dated 2019) are described below.

For assay [1], the target named is T1, IRE1a (Homo sapiens, UniProt O75460). Put plainly: IRE1a Endoribonuclease Nanoluciferase Assay (XBP1 luciferase reporter in 293 T cells). The note with it: 293 T cells transfected with XBP1 luciferase reporter plasmid. Format: cell-based. How it is done: Compounds disclosed herein were assessed for disruption of IRE1 signaling using a IRE1a Endoribonuclease Nanoluciferase Assay. Briefly, 2.5×10^6 293 T cells were seeded in a 10 cm^2 tissue culture plate. About 24 hours later, the cells were transfected with Effectene. In a 15 mL Tube, the following was added: 2 μg XBP1 luciferase reporter plasmid (PGK-Luc2-P2A-XBP1u-Nanoluciferase-PEST); 300 μl EC buffer; and 16 μl Enhancer, followed by incubation at room temp for 5 minutes. Next, 60 μl Effectene (Qiagen 301427) was added, followed by incubation at room temperature for 10 minutes. 2.6 mL cDMEM media was added. Old media was aspirated from the cells, followed by addition of 7 mL fresh media. Full transfection mixture was added dropwise to cells. Cells were incubated for 6 hours, followed by tripsinization, centrifugation and resuspension in 11 mL media. 100 uL of cells were plated per a well in a 96 well plate. A day later, stressors of choice+/− inhibitors were added. To harvest, media was aspirated from cells completely, then 50 uL 1× passive lysis buffer (Promega: E1941) was added per well and put on shaker (300 rpm) for 30 minutes at room temperature. Cells were centrifuged, and 15 uL sample per well was added to a new, opaque white 384 well plate (Corning 3570). 15 uL OneGlo (nanoluciferase kit, Promega N1630) was added. Plates were spun down, placed on shaker (300 rpm) for 10 minutes. Plates were read on luminometer, 1000 ms integration time per well. 15 uL Stop and Glo (nanoluciferase kit) was added. Plates were spun down, placed on shaker (300 rpm) for 10 minutes. Plates were read on luminometer, 1000 ms second integration time per well. Recordings are provided below in Table 4.
T1 sequence (O75460 19-977): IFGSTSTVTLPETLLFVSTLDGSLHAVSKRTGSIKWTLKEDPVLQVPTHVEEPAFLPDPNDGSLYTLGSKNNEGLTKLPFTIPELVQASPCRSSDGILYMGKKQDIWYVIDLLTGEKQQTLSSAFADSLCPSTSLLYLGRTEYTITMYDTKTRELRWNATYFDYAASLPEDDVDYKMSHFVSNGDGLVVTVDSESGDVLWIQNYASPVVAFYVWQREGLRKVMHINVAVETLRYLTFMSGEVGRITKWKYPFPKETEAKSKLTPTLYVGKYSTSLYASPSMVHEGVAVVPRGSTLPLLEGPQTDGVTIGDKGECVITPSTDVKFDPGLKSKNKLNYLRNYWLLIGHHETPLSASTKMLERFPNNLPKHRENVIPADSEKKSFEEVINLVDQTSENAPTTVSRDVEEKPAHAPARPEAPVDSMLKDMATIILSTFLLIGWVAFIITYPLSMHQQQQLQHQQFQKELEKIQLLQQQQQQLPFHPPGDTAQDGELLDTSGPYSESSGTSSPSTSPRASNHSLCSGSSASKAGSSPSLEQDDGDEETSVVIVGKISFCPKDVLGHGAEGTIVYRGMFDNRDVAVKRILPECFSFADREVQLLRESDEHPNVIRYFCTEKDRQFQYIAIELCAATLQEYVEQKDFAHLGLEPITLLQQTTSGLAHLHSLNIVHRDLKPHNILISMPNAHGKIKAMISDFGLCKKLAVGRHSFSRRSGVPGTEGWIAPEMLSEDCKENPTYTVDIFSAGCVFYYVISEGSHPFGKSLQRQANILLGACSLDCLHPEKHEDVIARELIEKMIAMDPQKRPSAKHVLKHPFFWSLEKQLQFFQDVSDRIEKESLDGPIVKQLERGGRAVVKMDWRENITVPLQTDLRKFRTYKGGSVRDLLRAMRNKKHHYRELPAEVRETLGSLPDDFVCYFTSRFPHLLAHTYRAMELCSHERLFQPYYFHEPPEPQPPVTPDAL
For orientation: In a reporter assay the amount or activity of a reporter protein is the signal.

Assay [2] has as its target T1, IRE1a. As to the kind of experiment: In vitro FRET assay (XBP1 RNA probe cleavage by IRE1a). Format: biochemical. More on the design: purchased SignalChem. Particulars: SignalChem IRE1a protein 2 nM. How it is done: In vitro FRET assay was performed to evaluate the ability of select compounds to inhibit IRE1, the results of which are summarized in Table 3. To perform the in vitro FRET assay, 1× complete assay buffer (CAB; […] DTT, 50 mM sodium citrate pH 7.15, 1 mM magnesium acetate, 0.02% tween 20) was used to dilute SignalChem IRE1a protein to a final concentration of 2 nM. Selected compounds were serially diluted with DMSO in a non-binding black 384-well plate for a total of 15 ul in each well. 2 ul of the serially diluted compound or DMSO control were then added to new wells containing 98 ul of 1×CAB, for a total volume of 100 ul, 10 ul of which were then transferred to wells of a new plate. 5 ul of the diluted IRE1a was then added to each well. 5 ul of a […] XBP1 RNA probe was then added to each well. Fluorescence was then read over 30 minutes in kinetic mode (485/515 nm).
Two RNA probes were used, XBP1 wildtype (SEQ ID NO: 2) which is able to be spliced by active IRE1a or XBP1 mutant (SEQ ID NO: 3) which is unable to be spliced. Each probe contained a 5′ 6-FAM modification and a 3′ IOWA Black FQ modification.

In general, pEC50 refers to the negative decadic logarithm of the EC50, by convention in mol/L. Read a high pEC50 as a low EC50. The term pIC50 denotes −log10 of the IC50, conventionally taken in molar units. Read a high pIC50 as a small IC50.

SMILES strings stand for the structures. pEC50, pIC50: −log10 of the molar value.

At IRE1a [1], `Cn1nc(NC(=O)Cc2cccc(C(F)(F)F)c2)cc1-c1cc2cnc(N[C@H]3CC[C@H](N)CC3)nc2c2ccccc12` [Compound 31, N-(5-(2-(((1r,4r)-4-aminocyclohexyl)amino)benzo[h]quinazolin-6-yl)-1-methyl-1H-pyrazol-3-yl)-2-(3-(trifluoromethyl)phenyl)acetamide] gave a pEC50 of less than 7.00. On IRE1a [2], this compound showed a pIC50 of less than 7.00.

In the case of `CCc1cc(-c2cc(NC(=O)Cc3cc(C(F)(F)F)ccc3C(F)(F)F)nn2C)cc2cnc(N[C@H]3CC[C@H](NC(=O)CN)CC3)nc12` [Compound 44, 2-amino-N-((1r,4r)-4-((6-(3-(2-(2,5-bis(trifluoromethyl)phenyl)acetamido)-1-methyl-1H-pyrazol-5-yl)-8-ethylquinazolin-2-yl)amino)cyclohexyl)acetamide], the pEC50 on IRE1a [1] is 7.00 to 7.30. This compound also showed a pIC50 at IRE1a [2] of 7.00 to 7.30.

Compound `CCc1cc(-c2cc(NC(=O)Cc3ccc(C(F)(F)F)c(F)c3)nn2C)cc2cnc(N[C@H]3CC[C@H](N)CC3)nc12` [Compound 7, N-(5-(2-(((1r,4r)-4-aminocyclohexyl)amino)-8-ethylquinazolin-6-yl)-1-methyl-1H-pyrazol-3-yl)-2-(3-fluoro-4-(trifluoromethyl)phenyl)acetamide] gave a pEC50 on IRE1a [1] of less than 7.00. In addition, the pIC50 against IRE1a [2] is no less than 8.30.

The compound `CCc1cc(-c2cc(NC(=O)Cc3cccc(C(F)(F)F)c3)nn2C)cc2cnc(N[C@H]3CC[C@H](NCCOC)CC3)nc12` [Compound 40, N-(5-(8-ethyl-2-(((1r,4r)-4-((2-methoxyethyl)amino)cyclohexyl)amino)quinazolin-6-yl)-1-methyl-1H-pyrazol-3-yl)-2-(3-(trifluoromethyl)phenyl)acetamide] gave a pEC50 at IRE1a [1] of 7.00 to 7.30. In addition, the pIC50 on IRE1a [2] is no less than 8.30.

`CCc1cc(-c2cc(CC(=O)Nc3ccc(OCCCNC)c(C(F)(F)F)c3)nn2C)cc2cnc(N[C@H]3CC[C@H](N)CC3)nc12` [Compound 37, 2-(5-(2-(((1r,4r)-4-aminocyclohexyl)amino)-8-ethylquinazolin-6-yl)-1-methyl-1H-pyrazol-3-yl)-N-(4-(3-(methylamino)propoxy)-3-(trifluoromethyl)phenyl)acetamide] had a pEC50 on IRE1a [1] of 7.30 to 8.30. On IRE1a [2], this compound had a pIC50 of no less than 8.30.

In the case of `CCc1cc(-c2cc(NC(=O)Cc3cccc(C(F)(F)F)c3)nn2C)cc2cnc(N[C@H]3CC[C@H](N(C)CCOC)CC3)nc12` [Compound 46, N-(5-(8-ethyl-2-(((1r,4r)-4-((2-methoxyethyl)(methyl)amino)cyclohexyl)amino)quinazolin-6-yl)-1-methyl-1H-pyrazol-3-yl)-2-(3-(trifluoromethyl)phenyl)acetamide], the pIC50 against IRE1a [2] is less than 7.00.

`CCc1cc(-c2cc(NC(=O)Cc3cccc(C(F)(F)F)c3)nn2C)cc2cnc(N[C@H]3CC[C@H](O)CC3)nc12` [Compound 3, N-(5-(8-ethyl-2-(((1r,4r)-4-hydroxycyclohexyl)amino)quinazolin-6-yl)-1-methyl-1H-pyrazol-3-yl)-2-(3-(trifluoromethyl)phenyl)acetamide]: at IRE1a [2], the pIC50 was less than 7.00.

Compound `CCc1cc(-c2cc(NC(=O)Cc3cc(C(F)(F)F)ccc3C(F)(F)F)nn2C)cc2cnc(N[C@H]3CC[C@@](C)(N)CC3)nc12` [Compound 50, N-(5-(2-(((1s,4s)-4-amino-4-methylcyclohexyl)amino)-8-ethylquinazolin-6-yl)-1-methyl-1H-pyrazol-3-yl)-2-(2,5-bis(trifluoromethyl)phenyl)acetamide] had a pIC50 against IRE1a [2] of 7.00 to 7.30.

`CCc1cc(-c2cc(NC(=O)Cc3cc(F)cc(C(F)(F)F)c3)nn2C)cc2cnc(N[C@H]3CC[C@H](N)CC3)nc12` [Compound 20, N-(5-(2-(((1r,4r)-4-aminocyclohexyl)amino)-8-ethylquinazolin-6-yl)-1-methyl-1H-pyrazol-3-yl)-2-(3-fluoro-5-(trifluoromethyl)phenyl)acetamide]: on IRE1a [2], the pIC50 was 7.30 to 8.30.

In the case of `CCc1cc(-c2cc(CC(=O)Nc3cccc(C(F)(F)F)c3)nn2C)cc2cnc(N[C@H]3CC[C@H](N)CC3)nc12` [Compound 23, 2-(5-(2-(((1r,4r)-4-aminocyclohexyl)amino)-8-ethylquinazolin-6-yl)-1-methyl-1H-pyrazol-3-yl)-N-(3-(trifluoromethyl)phenyl)acetamide], the pIC50 against IRE1a [2] was less than 7.00.

Turning to `CCc1cc(-c2cc(NC(=O)Cc3cc(C(F)(F)F)ccc3C(F)(F)F)nn2C)cc2cnc(N[C@H]3CC[C@](C)(N)CC3)nc12` [Compound 49, N-(5-(2-(((1r,4r)-4-amino-4-methylcyclohexyl)amino)-8-ethylquinazolin-6-yl)-1-methyl-1H-pyrazol-3-yl)-2-(2,5-bis(trifluoromethyl)phenyl)acetamide], at IRE1a [2], the pIC50 is 7.00 to 7.30.

`CCc1cc(-c2cc(NC(=O)[C@@H](O)c3ccccc3)nn2C)cc2cnc(N[C@H]3CC[C@H](N)CC3)nc12` [Compound 15, (S)-N-(5-(2-(((1r,4r)-4-aminocyclohexyl)amino)-8-ethylquinazolin-6-yl)-1-methyl-1H-pyrazol-3-yl)-2-hydroxy-2-phenylacetamide]: the pIC50 on IRE1a [2] is 7.30 to 8.30.

The compound `Cc1c(-c2cc(NC(=O)Cc3cc(C(F)(F)F)ccc3C(F)(F)F)nn2C)ccc2nc(N[C@H]3CC[C@H](N)CC3)ncc12` [Compound 45, N-(5-(2-(((1r,4r)-4-aminocyclohexyl)amino)-5-methylquinazolin-6-yl)-1-methyl-1H-pyrazol-3-yl)-2-(2,5-bis(trifluoromethyl)phenyl)acetamide] had a pIC50 against IRE1a [2] of less than 7.00.

Consider `CCc1cc(-c2cc(NC(=O)Cc3cc(C(F)(F)F)cc(C(F)(F)F)c3)nn2C)cc2cnc(N[C@H]3CC[C@H](N)CC3)nc12` [Compound 5, N-(5-(2-(((1r,4r)-4-aminocyclohexyl)amino)-8-ethylquinazolin-6-yl)-1-methyl-1H-pyrazol-3-yl)-2-(3,5-bis(trifluoromethyl)phenyl)acetamide], for which the pIC50 against IRE1a [2] was 7.30 to 8.30.

With `CCc1cc(-c2cc(NC(=O)Cc3cccc(C#N)c3)nn2C)cc2cnc(N[C@H]3CC[C@H](N)CC3)nc12` [Compound 17, N-(5-(2-(((1r,4r)-4-aminocyclohexyl)amino)-8-ethylquinazolin-6-yl)-1-methyl-1H-pyrazol-3-yl)-2-(3-cyanophenyl)acetamide], the pIC50 on IRE1a [2] was 7.30 to 8.30.

Consider `CCc1cc(-c2cc(NC(=O)Nc3cc(C(F)(F)F)cc(C(F)(F)F)c3)nn2C)cc2cnc(N[C@H]3CC[C@H](N)CC3)nc12` [Compound 21, 1-(5-(2-(((1r,4r)-4-aminocyclohexyl)amino)-8-ethylquinazolin-6-yl)-1-methyl-1H-pyrazol-3-yl)-3-(3,5-bis(trifluoromethyl)phenyl)urea], for which, on IRE1a [2], the pIC50 was 7.00 to 7.30.

`CCc1cc(-c2cc(NC(=O)[C@@H](N)c3ccccc3)nn2C)cc2cnc(N[C@H]3CC[C@H](N)CC3)nc12` [Compound 24, (S)-2-amino-N-(5-(2-(((1r,4r)-4-aminocyclohexyl)amino)-8-ethylquinazolin-6-yl)-1-methyl-1H-pyrazol-3-yl)-2-phenylacetamide] showed a pIC50 on IRE1a [2] of less than 7.00.

Turning to `CCc1cc(-c2cc(NC(=O)[C@H](N)c3ccccc3)nn2C)cc2cnc(N[C@H]3CC[C@H](N)CC3)nc12` [Compound 22, (R)-2-amino-N-(5-(2-(((1r,4r)-4-aminocyclohexyl)amino)-8-ethylquinazolin-6-yl)-1-methyl-1H-pyrazol-3-yl)-2-phenylacetamide], the pIC50 at IRE1a [2] was less than 7.00.
